# Experimental data published in patent US8598209B2, “P2X3, receptor antagonists for treatment of pain” (Merck Sharp & Dohme Corp., priority 2008, dated 2013).
# Biological target: T1, human P2X3 (Homo sapiens, UniProt P56373)
# T1 construct: expressed in transfected cells
# T1 sequence (P56373 1-397): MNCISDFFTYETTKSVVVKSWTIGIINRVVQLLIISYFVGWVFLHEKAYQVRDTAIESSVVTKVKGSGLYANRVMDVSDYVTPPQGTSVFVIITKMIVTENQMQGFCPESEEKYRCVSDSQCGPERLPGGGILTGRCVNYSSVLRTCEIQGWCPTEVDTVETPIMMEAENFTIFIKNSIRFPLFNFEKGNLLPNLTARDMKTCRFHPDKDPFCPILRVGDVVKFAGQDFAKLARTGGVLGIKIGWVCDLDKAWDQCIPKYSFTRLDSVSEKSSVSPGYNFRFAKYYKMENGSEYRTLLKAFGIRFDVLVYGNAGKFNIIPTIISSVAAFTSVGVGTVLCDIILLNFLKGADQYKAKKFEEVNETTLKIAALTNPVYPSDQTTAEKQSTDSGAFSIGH
# Experiment: Intracellular Calcium Measurement to Assess Antagonist Affinity (FLIPR, Fluo-4), human P2X3 cells
# Format: cell-based
# Conditions: Intracellular Calcium Measurement to Assess Antagonist Affinity assay; agonist α,β-meATP at EC50
# Excerpt: Generation of a Human P2X3 and P2X2/3 Stable Cell Line—
# Human P2X3 receptor cDNA (Accession number NM_002559) was subcloned as a 5′XhoI and 3′HindIII fragment into the expression vector pcDNA5/FRT (Invitrogen). Human P2X2 receptor cDNA (Accession number NM_174873) was subcloned as a 5′EcoRI and 3′NotI fragment into the expression vector pIRESneo2 (BD Biosciences Clontech). The human P2X3 expression construct was transfected using Lipofectamine 2000 (Invitrogen) into Flp-in—293 cells (Invitrogen) according to the manufacturer's directions. Cells positive for flp-mediated recombination of […] P2X3 were selected using 150 μg/ml hygromycin. The stable human P2X3 cell line was co-transfected with the human P2X2 expression construct using Lipofectamine 2000 as above and co-transfected cells selected using […] hygromycin and 1 mg/ml G418. The stable P2X3 cell line was propagated in DMEM, 10% FBS, 100 μg/ml hygromycin, and 100 units/ml penicillin and 100 μg/ml streptomycin, and maintained at 37° and 95% humidity. The stable P2X2/3 cell line was propagated as above with the addition of 500 μg/ml G418.
# Intracellular Calcium Measurement to Assess Antagonist Affinity—
# A fluorescent imaging plate reader (FLIPR; Molecular Devices) was used to monitor intracellular calcium levels using the calcium-chelating dye Fluo-4 (Molecular Probes). The excitation and emission wavelengths used to monitor fluorescence were 488 nm and 530 nm, respectively. Cells expressing either human P2X3 or human P2X2/3 were plated at a density of 20,000 cells/well (20 μl/well) in 384-well black-walled plates approximately 20 hours before beginning the assay. On the day of the assay 20 μl of loading buffer (Hank's balanced salt solution, 2.5 mM CaCl2, 20 mM HEPES, 0.1% BSA, 2.5 mM probenecid, TR-40, Fluo-4, and 138 mM NMDG substituted for NaCl) is added and cells dye-loaded for 60 min in the dark at room temperature. Ten minutes prior to adding agonist, the antagonist was added in a volume of 10 μl and allowed to incubate at room temperature. During this period fluorescence data is collected at 3 sec intervals followed by 10 sec intervals. The agonist, α,β-meATP, is added at a 6× concentration ([α,β-meATP]final=EC50). Following agonist addition fluorescence was measured at 5 sec intervals and analyzed based on the increase in peak relative fluorescence units (RFU) compared to the basal fluorescence. Peak fluorescence was used to determine the inhibitory effect at each concentration of antagonist by the following equation: % Inhibition=100*(1−((RFU(drug)−RFU(control))/(RFU(DMSO only)−RFU(control)))) In vitro Electrophysiological Assay—
row,IC50,SMILES
1,42 nM,Cc1ccc(-c2cc(C(=O)N[C@H](C)c3nc(C)no3)cnc2OC(C)C)cc1 [Example 3.22]
2,23 nM,"C[C@@H](NC(=O)c1cc(-c2ccc(F)cc2F)nc(C(C)(C)O)c1)c1ccc(C(F)(F)F)[n+]([O-])c1 [Example 1.62, 2-(2,4-Difluorophenyl)-6-(1-hydroxy-1-methylethyl)-N-{(1R)-1-[1-oxido-6-(trifluoromethyl)pyridin-3-yl]ethyl}isonicotinamide]"
3,48 nM,"Cc1noc([C@@H](C)NC(=O)c2cc(-c3ccc(F)cc3)c(=O)n(C(C)C)c2)n1 [Example 5.61, 5-(4-fluorophenyl)-1-isopropyl-N-[(1R)-1-(3-methyl-1,2,4-oxadiazol-5-yl)ethyl]-6-oxo-1,6-dihydropyridine-3-carboxamide]"
4,165 nM,Cc1ccc(-c2cc(C(=O)N[C@@H](C)c3nnc[nH]3)nc(-c3ccc(C)cc3)n2)cc1 [Example 2.1]
